Assay results as given in US6355799B1, “Substituted benzene compounds, process for their preparation, and herbicidal and defoliant compositions containing them” (ISK Americas Incorporated, priority 1997, dated 2002).

Experiments:
Format in all cases: in vivo
[1] = test system: redroot pigweed (Amaranthus retroflexus, AMARE); test: Pre-emerge test, greenhouse herbicide activity screening; details: pre-emerge, 14 days after application, rating scale 0-100
Summary of the method: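 Compounds in acetone were track-sprayed at 15-1000 g ai/ha (187 l/ha) on sandy loam pots: pre-emerge one day after seeding, post-emerge at 2-3 leaf stage with 0.25% v/v non-ionic surfactant. Phytotoxicity was rated 14 days later on a 0 (no damage) to 100 (complete death) scale.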

[2] = test system: green foxtail (Setaria viridis, SETVI); test: as above; details: pre-emerge, 14 days after application, rating scale 0-100
Description: (§1) A standard greenhouse herbicide activity screening system was used to evaluate the herbicidal efficacy and crop safety of these test compounds. Seven broadleaf weed species including redroot pigweed (Amaranthus retroflexus, AMARE, velvetleaf (Abutilon theophrasti, ABUTH), sicklepod (Cassia obtusifolia, CASOB), ivyleaf morningglory (Ipomoea hederacea, IPOHE), lambsquarters (Chenopodium album, CHEAL), common ragweed (Ambrosia artemisizfolia L., AMBEL), and cocklebur (Xanthium strumarium, XANST) were used as test species. Four grass weed species including green foxtail (Setaria viridis, SETVI), barnyardgrass (Echinochloa crus-galli, ECHCG), johnsongrass (Sorghum halepense, SORHA), and large crabgrass (Digitaria sanguinalis, DIGSA) were also used. In addition, three crop species, field corn (Zea mays L., var. Dekalb 535, CORN), soybean (Glycine max L., var. Pella 86, SOY), and is upland rice (Oryza sp., var. Tebonnet, RICE) were included.
(§2) All plants were grown in 10 cm square plastic pots which were filled with a sandy loam soil mix. For pre-emerge tests, seeds were planted one day prior to application of the test compounds. For post-emerge tests, seeds were planted 8-21 days prior to the test to allow emergence and good foliage development prior to application of the test substances. At the time of the post-emerge application, plants of all species were usually at the 2-3 leaf stage of development.
(§3) All test compounds Were dissolved in acetone and applied to the test units in a volume of 187 l /ha. Test materials were applied at rates ranging from 15 g ai/ha to 1000 g ai/ha using a track sprayer equipped with a TJ8001E even flow flat fan spray nozzle. Plants were arranged on a shelf so that the top of the canopy (post-emerge) or top of the soil surface (pre-emerge) was 40-45 cm below the nozzle. Pressurized air was used to force the test solution through the nozzle as it was mechanically advanced (via electrically driven chain drive) over the top of all test plants/pots. This application simulates a typical commercial field herbicide application.
(§4) In the post-emerge test, a commercial non-ionic surfactant was also included (0.25% v/v) to enhance wetting of the leaf surfaces of target plants. Immediately after application, test units of the pre-emerge applications were watered at the soil surface to incorporate the test materials. Subsequently, these test units were bottom-watered. Post-emerge test units were always bottom-watered.
(§5) At 14 days after application of the test materials, phytotoxicity ratings were recorded. A rating scale of 0-100 was used as previously described in Research Methods in Weed Science, 2nd edition, B. Truelove, Ed., Southern Weed Science Society, Auburn University, Auburn, Ala. 1977. Briefly, “0” corresponds to no damage and “100” corresponds to complete death of all plants in the test unit. This scale was used both to determine efficacy against weed species and damage to crop species. Herbicide activity data for various compounds of this invention, which are shown by compound No. in Tables 1-8, are shown in Tables 11 and 12.

[3] = test system: lambsquarters (Chenopodium album, CHEAL); test: as above; details: pre-emerge, 14 days after application, rating scale 0-100
Description: as §1, §2, §3, §4, §5

[4] = test system: sicklepod (Cassia obtusifolia, CASOB); test: as above; details: pre-emerge, 14 days after application, rating scale 0-100
Description: as §1, §2, §3, §4, §5

[5] = test system: large crabgrass (Digitaria sanguinalis, DIGSA); test: as above; details: pre-emerge, 14 days after application, rating scale 0-100
Description: as §1, §2, §3, §4, §5

[6] = test system: velvetleaf (Abutilon theophrasti, ABUTH); test: as above; details: pre-emerge, 14 days after application, rating scale 0-100
Description: as §1, §2, §3, §4, §5

[7] = test system: barnyardgrass (Echinochloa crus-galli, ECHCG); test: as above; details: pre-emerge, 14 days after application, rating scale 0-100
Description: as §1, §2, §3, §4, §5

[8] = test system: ivyleaf morningglory (Ipomoea hederacea, IPOHE); test: as above; details: pre-emerge, 14 days after application, rating scale 0-100
Description: as §1, §2, §3, §4, §5

[9] = test system: upland rice (Oryza sp., var. Tebonnet, RICE); test: Post-emerge test, crop safety; details: post-emerge, 14 days after application, rating scale 0-100
Summary of the method: (§6)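 Rating: 0–100 visual injury, 14 DAA. Application: acetone, 187 l/ha, 15–1000 g ai/ha, flat-fan track sprayer with nozzle 40–45 cm above soil or canopy. Post-emerge runs used 0.25% v/v surfactant on 2–3 leaf plants.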

[10] = test system: field corn (Zea mays L., var. Dekalb 535, CORN); test: Post-emerge test, crop safety; details: post-emerge, 14 days after application, rating scale 0-100
Summary of the method: as §6

[11] = test system: green foxtail (Setaria viridis, SETVI); test: Post-emerge test, greenhouse herbicide activity screening; details: post-emerge, 14 days after application, rating scale 0-100
Description: as §1, §2, §3, §4, §5

[12] = test system: lambsquarters (Chenopodium album, CHEAL); test: as above; details: post-emerge, 14 days after application, rating scale 0-100
Description: as §1, §2, §3, §4, §5

[13] = test system: redroot pigweed (Amaranthus retroflexus, AMARE); test: as above; details: post-emerge, 14 days after application
Description: as §1, §2, §3, §4, §5

[14] = test system: sicklepod (Cassia obtusifolia, CASOB); test: as above; details: post-emerge, 14 days after application, rating scale 0-100
Description: as §1, §2, §3, §4, §5

[15] = test system: large crabgrass (Digitaria sanguinalis, DIGSA); test: as above; details: post-emerge, 14 days after application, rating scale 0-100
Description: as §1, §2, §3, §4, §5

[16] = test system: velvetleaf (Abutilon theophrasti, ABUTH); test: as above; details: post-emerge, 14 days after application, rating scale 0-100
Description: as §1, §2, §3, §4, §5

[17] = test system: barnyardgrass (Echinochloa crus-galli, ECHCG); test: as above; details: post-emerge, 14 days after application, rating scale 0-100
Description: as §1, §2, §3, §4, §5

[18] = test system: ivyleaf morningglory (Ipomoea hederacea, IPOHE); test: as above; details: post-emerge, 14 days after application, rating scale 0-100
Description: as §1, §2, §3, §4, §5

[19] = test system: upland rice (Oryza sp., var. Tebonnet, RICE); test: Pre-emerge test, crop safety; details: pre-emerge, 14 days after application, rating scale 0-100
Summary of the method: as §6

[20] = test system: field corn (Zea mays L., var. Dekalb 535, CORN); test: Pre-emerge test, crop safety; details: pre-emerge, 14 days after application, rating scale 0-100
Summary of the method: as §6

## COc1c(Cl)cc(F)c(-n2c(=O)cc(C(F)(F)F)n(C)c2=O)c1NN=Cc1ccc2ccccc2c1 [15-22]
[1]; 63 g ai/ha
  phytotoxicity rating AMARE: 100
[1]; 250 g ai/ha
  phytotoxicity rating AMARE: 100
[2]; 63 g ai/ha
  phytotoxicity rating SETVI: 90
[2]; 250 g ai/ha
  phytotoxicity rating SETVI: 100
[3]; 63 g ai/ha
  phytotoxicity rating CHEAL: 100
[3]; 250 g ai/ha
  phytotoxicity rating CHEAL: 100
[4]; 63 g ai/ha
  phytotoxicity rating CASOB: 100
[4]; 250 g ai/ha
  phytotoxicity rating CASOB: 100
[5]; 63 g ai/ha
  phytotoxicity rating DIGSA: 100
[5]; 250 g ai/ha
  phytotoxicity rating DIGSA: 100
[6]; 63 g ai/ha
  phytotoxicity rating ABUTH: 100
[6]; 250 g ai/ha
  phytotoxicity rating ABUTH: 100
[7]; 63 g ai/ha
  phytotoxicity rating ECHCG: 60
[7]; 250 g ai/ha
  phytotoxicity rating ECHCG: 100
[8]; 63 g ai/ha
  phytotoxicity rating IPOHE: 50
[8]; 250 g ai/ha
  phytotoxicity rating IPOHE: 100
[9]; 63 g ai/ha
  Post-emerge Herbicidal Activity RICE (crop damage rating): 50
[9]; 250 g ai/ha
  Post-emerge Herbicidal Activity RICE (crop damage rating): 90
[10]; 63 g ai/ha
  Post-emerge Herbicidal Activity CORN (crop damage rating): 30
[10]; 250 g ai/ha
  Post-emerge Herbicidal Activity CORN (crop damage rating): 90
[11]; 63 g ai/ha
  Post-emerge Herbicidal Activity SETVI (phytotoxicity rating): 40
[11]; 250 g ai/ha
  Post-emerge Herbicidal Activity SETVI (phytotoxicity rating): 95
[12]; 63 g ai/ha
  Post-emerge Herbicidal Activity CHEAL (phytotoxicity rating): 100
[12]; 250 g ai/ha
  Post-emerge Herbicidal Activity CHEAL (phytotoxicity rating): 100
[13]; 63 g ai/ha, rating scale 0-100 (0 no damage, 100 complete death)
  Post-emerge Herbicidal Activity AMARE (phytotoxicity rating): 100
[13]; 250 g ai/ha, rating scale 0-100
  Post-emerge Herbicidal Activity AMARE (phytotoxicity rating): 100
[14]; 63 g ai/ha
  Post-emerge Herbicidal Activity CASOB (phytotoxicity rating): 70
[14]; 250 g ai/ha
  Post-emerge Herbicidal Activity CASOB (phytotoxicity rating): 100
[15]; 63 g ai/ha
  Post-emerge Herbicidal Activity DIGSA (phytotoxicity rating): 30
[15]; 250 g ai/ha
  Post-emerge Herbicidal Activity DIGSA (phytotoxicity rating): 90
[16]; 63 g ai/ha
  Post-emerge Herbicidal Activity ABUTH (phytotoxicity rating): 100
[16]; 250 g ai/ha
  Post-emerge Herbicidal Activity ABUTH (phytotoxicity rating): 100
[17]; 63 g ai/ha
  Post-emerge Herbicidal Activity ECHCG (phytotoxicity rating): 40
[17]; 250 g ai/ha
  Post-emerge Herbicidal Activity ECHCG (phytotoxicity rating): 100
[18]; 63 g ai/ha
  Post-emerge Herbicidal Activity IPOHE (phytotoxicity rating): 100
[18]; 250 g ai/ha
  Post-emerge Herbicidal Activity IPOHE (phytotoxicity rating): 100
[19]; 63 g ai/ha
  phytotoxicity rating RICE: 30
[19]; 250 g ai/ha
  phytotoxicity rating RICE: 99
[20]; 63 g ai/ha
  phytotoxicity rating CORN: 25
[20]; 250 g ai/ha
  phytotoxicity rating CORN: 95
